# Source: publication PMC11413854, “Reversible Control of Native GluN2B-Containing NMDA Receptors with Visible Light” (ACS Chemical Neuroscience, 2024)
# Where “and” joins values, the source holds several entries; their conditions need not be identical. Equal values may be shown once. Read-outs that look alike come from different tables or passages of the source.
# Columns and labels:
# GluN1/GluN2B-Q110G = target: T1, GluN1/GluN2B-Q110G (UniProt P35439+Q01097, Q110G); test: TEVC on Xenopus oocytes, EVT-101 site mutant; format: cell-based, rat GluN1, mouse GluN2B; settings: 1 µM trans-OptoNAM-3 (dark)
# T1 construct: expressed in transfected cells; host or cells: Xenopus laevis oocytes (nuclear cDNA injection)
# T1 sequence (Q01097 27-1482 Q110G, other chains not shown): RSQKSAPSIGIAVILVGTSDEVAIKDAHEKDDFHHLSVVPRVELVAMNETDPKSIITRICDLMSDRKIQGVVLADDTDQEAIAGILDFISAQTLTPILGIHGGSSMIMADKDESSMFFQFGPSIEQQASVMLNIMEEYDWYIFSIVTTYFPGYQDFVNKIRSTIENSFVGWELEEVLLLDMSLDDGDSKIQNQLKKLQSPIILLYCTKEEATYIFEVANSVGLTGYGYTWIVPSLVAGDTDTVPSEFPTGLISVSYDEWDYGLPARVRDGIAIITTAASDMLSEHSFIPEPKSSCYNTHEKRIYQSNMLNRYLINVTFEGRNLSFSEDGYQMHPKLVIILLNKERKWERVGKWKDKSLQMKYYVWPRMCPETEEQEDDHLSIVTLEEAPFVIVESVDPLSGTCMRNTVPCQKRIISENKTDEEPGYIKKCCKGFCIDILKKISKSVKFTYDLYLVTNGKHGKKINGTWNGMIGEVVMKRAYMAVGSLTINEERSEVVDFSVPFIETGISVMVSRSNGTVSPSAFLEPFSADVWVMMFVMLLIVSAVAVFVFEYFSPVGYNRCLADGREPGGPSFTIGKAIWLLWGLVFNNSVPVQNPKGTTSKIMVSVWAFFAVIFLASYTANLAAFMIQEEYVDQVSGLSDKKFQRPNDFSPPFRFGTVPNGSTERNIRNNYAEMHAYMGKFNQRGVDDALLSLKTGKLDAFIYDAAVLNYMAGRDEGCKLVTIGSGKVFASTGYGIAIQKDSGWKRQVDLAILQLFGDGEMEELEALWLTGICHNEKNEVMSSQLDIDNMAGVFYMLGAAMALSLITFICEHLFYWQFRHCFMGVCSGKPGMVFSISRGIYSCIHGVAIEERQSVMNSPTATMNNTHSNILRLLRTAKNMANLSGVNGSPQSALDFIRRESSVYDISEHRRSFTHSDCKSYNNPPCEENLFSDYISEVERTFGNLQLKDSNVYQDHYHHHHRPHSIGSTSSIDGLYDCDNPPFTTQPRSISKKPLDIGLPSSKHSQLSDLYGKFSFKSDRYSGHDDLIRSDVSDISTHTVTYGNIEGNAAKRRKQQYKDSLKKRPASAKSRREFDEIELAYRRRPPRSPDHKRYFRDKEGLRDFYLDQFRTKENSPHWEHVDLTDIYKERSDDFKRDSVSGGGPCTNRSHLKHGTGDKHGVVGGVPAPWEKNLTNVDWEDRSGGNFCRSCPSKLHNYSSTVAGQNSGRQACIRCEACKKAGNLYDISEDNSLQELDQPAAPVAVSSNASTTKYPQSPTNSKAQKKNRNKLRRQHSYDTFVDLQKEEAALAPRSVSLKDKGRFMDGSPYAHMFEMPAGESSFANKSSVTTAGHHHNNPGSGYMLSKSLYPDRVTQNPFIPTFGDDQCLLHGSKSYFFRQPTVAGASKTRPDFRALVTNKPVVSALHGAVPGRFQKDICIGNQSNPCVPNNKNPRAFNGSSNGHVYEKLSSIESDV
# Description: (§1) We finally investigated the location of the OptoNAM-3 binding-site on the receptor. […] The binding site for GluN2B-selective antagonists at the GluN1/GluN2B NTD dimer interface contains two partially overlapping pockets that accommodate GluN2B-selective NAMs of distinct chemical scaffolds:[19] either scaffolds related to ifenprodil or scaffolds related to another GluN2B-selective NAM called EVT-101.[47]
# (§2) We used cDNA coding for rat GluN1–1a (named GluN1 herein) (GenBank: U08261.1), rat GluN2A (GenBank: D13211.1), mouse GluN2B (GenBank: D10651.2), rat GluA1 flop (GenBank: M36418.2), and rat Myc-GluA2(Q)-flip (GenBank: AF164344.1) cloned into pcDNA3-based expression plasmids. GluK2 (GenBank: Z11548.1) corresponds to the fully RNA-edited version.[80] The GluN2B-ΔNTD construct is from ref[45] and GluN2B–N615K is from ref[81]. Single mutants GluN2B-Q110G and GluN1-L135H were from ref[19]. The GluA2 cDNA contains a Myc tag ([…]) fused between the signal peptide and the N-terminus sequences, and the GluA2 subunit is […] for its Q/R/N site (GluA2(Q)) to allow permeation of homomeric GluA2 receptors.[2] cDNAs coding for rat GluN2C (GenBank: M91563.1) and GluN2D subunits (GenBank: L31611.1) were in prK5 plasmids. […]
# GluN1/GluN2C = target: T2, GluN1/GluN2C (Rattus norvegicus, UniProt P35439+Q00961); test: TEVC on Xenopus oocytes, GluN1/GluN2C diheteromers; format: cell-based; settings: 1 µM trans-OptoNAM-3 (dark); listed as trans-OptoNAM-3
# T2 construct: expressed in transfected cells; host or cells: Xenopus laevis oocytes (nuclear cDNA injection)
# T2 sequence (Q00961 20-1237, other chains not shown): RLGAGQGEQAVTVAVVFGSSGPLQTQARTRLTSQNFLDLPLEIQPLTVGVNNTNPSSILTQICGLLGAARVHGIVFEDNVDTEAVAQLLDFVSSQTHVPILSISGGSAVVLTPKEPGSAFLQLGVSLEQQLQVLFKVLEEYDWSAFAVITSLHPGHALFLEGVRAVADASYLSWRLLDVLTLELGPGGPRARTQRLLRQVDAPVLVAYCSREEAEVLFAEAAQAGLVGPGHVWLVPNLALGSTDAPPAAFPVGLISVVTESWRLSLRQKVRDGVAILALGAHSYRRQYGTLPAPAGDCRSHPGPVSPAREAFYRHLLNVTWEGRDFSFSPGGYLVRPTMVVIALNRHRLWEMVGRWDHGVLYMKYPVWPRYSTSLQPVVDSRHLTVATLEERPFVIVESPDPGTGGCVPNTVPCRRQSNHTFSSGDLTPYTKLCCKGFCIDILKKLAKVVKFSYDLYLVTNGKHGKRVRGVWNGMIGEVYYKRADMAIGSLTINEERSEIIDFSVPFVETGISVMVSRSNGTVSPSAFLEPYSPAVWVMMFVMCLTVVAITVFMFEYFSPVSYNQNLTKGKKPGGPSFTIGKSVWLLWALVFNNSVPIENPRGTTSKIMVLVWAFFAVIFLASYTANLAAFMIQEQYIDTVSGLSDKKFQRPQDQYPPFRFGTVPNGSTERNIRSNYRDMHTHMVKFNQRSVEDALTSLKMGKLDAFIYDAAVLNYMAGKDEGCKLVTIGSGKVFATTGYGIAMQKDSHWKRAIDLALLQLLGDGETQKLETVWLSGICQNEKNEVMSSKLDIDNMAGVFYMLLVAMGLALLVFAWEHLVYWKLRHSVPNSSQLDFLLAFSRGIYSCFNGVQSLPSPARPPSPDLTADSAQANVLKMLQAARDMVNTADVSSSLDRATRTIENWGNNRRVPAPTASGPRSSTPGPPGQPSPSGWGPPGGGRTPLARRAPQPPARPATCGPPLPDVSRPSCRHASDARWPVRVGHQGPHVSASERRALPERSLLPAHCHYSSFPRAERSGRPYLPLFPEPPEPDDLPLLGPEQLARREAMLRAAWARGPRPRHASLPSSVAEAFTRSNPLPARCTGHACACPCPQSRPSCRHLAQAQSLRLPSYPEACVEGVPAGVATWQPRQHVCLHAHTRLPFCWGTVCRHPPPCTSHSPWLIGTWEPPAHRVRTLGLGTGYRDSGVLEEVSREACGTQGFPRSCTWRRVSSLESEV
# Description: (§3) NMDARs exist as multiple subtypes in the brain that are formed by the combination of two GluN1 and either two identical (diheteromers) or different (triheteromers) GluN2 (GluN2A-D) subunits.[1] We assessed the selectivity of trans-OptoNAM-3 (dark PSS) for the other NMDAR subtypes.
# (§4) We used cDNA coding for rat GluN1–1a (named GluN1 herein) (GenBank: U08261.1), rat GluN2A (GenBank: D13211.1), mouse GluN2B (GenBank: D10651.2), rat GluA1 flop (GenBank: M36418.2), and rat Myc-GluA2(Q)-flip (GenBank: AF164344.1) cloned into pcDNA3-based expression plasmids. GluK2 (GenBank: Z11548.1) corresponds to the fully RNA-edited version.[80] The GluN2B-ΔNTD construct is from ref[45] and GluN2B–N615K is from ref[81]. Single mutants GluN2B-Q110G and GluN1-L135H were from ref[19]. The GluA2 cDNA contains a Myc tag ([…]) fused between the signal peptide and the N-terminus sequences, and the GluA2 subunit is […] for its Q/R/N site (GluA2(Q)) to allow permeation of homomeric GluA2 receptors.[2] cDNAs coding for rat GluN2C (GenBank: M91563.1) and GluN2D subunits (GenBank: L31611.1) were in prK5 plasmids.
# (§5) Expression of recombinant NMDA receptors was obtained by oocyte nuclear coinjection of 37 nL of a mixture of cDNAs (at 30 ng/μL) coding for GluN1–1a and various GluN2 subunits (ratio 1:1). The protocol in ref[43] was followed for the expression of GluN1/GluN2A/GluN2B triheteromers. […]
# GluN1-L135H/GluN2B = target: T3, GluN1-L135H/GluN2B (UniProt P35439+Q01097, L135H); test: TEVC on Xenopus oocytes, ifenprodil site mutant; format: cell-based, rat GluN1, mouse GluN2B; settings: 1 µM trans-OptoNAM-3 (dark)
# T3 construct: expressed in transfected cells; host or cells: Xenopus laevis oocytes (nuclear cDNA injection)
# T3 sequence (Q01097 27-1482, other chains not shown): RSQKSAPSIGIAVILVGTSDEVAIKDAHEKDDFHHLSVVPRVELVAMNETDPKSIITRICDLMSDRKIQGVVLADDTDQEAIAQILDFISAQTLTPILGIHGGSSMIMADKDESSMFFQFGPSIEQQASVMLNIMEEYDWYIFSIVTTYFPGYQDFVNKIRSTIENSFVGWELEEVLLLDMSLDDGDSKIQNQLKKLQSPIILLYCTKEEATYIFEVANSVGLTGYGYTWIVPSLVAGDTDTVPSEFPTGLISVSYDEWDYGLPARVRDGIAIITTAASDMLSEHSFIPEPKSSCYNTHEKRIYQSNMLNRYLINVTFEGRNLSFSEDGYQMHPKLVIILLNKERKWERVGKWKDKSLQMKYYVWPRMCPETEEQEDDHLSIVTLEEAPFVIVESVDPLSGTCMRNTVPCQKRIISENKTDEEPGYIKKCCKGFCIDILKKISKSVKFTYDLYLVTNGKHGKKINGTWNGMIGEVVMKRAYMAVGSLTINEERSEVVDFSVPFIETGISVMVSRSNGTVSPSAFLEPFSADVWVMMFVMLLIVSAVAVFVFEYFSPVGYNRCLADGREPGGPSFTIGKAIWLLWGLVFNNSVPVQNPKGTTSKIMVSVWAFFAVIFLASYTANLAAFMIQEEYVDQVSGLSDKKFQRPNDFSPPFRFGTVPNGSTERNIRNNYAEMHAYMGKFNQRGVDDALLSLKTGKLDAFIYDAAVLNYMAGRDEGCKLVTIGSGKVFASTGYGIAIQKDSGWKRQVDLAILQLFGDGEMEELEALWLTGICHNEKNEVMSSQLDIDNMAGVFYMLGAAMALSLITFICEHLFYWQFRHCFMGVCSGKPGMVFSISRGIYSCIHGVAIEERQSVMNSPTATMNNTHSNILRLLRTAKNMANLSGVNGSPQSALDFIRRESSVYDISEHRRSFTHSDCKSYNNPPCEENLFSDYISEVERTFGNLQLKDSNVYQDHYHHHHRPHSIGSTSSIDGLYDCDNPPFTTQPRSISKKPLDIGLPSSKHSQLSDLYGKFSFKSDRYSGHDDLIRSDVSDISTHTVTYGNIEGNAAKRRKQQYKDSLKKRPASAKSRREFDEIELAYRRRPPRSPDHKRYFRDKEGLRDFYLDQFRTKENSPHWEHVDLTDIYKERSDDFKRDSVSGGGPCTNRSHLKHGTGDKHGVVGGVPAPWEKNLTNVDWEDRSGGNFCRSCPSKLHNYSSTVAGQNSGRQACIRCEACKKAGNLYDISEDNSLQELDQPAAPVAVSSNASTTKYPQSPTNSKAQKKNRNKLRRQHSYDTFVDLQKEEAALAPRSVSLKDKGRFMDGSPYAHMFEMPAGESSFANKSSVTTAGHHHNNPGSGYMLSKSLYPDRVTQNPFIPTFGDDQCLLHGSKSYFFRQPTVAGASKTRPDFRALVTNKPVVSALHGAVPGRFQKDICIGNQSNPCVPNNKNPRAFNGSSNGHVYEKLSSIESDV
# Description: as §1, §2
# GluN1/GluN2A = target: T4, GluN1/GluN2A (Rattus norvegicus, UniProt P35439+Q00959); test: TEVC on Xenopus oocytes, GluN1/GluN2A diheteromers; format: cell-based; settings: 1 µM trans-OptoNAM-3 (dark); listed as trans-OptoNAM-3
# T4 construct: expressed in transfected cells; host or cells: Xenopus laevis oocytes (nuclear cDNA injection)
# Description: as §3, §4, §5
# GluK2 kainate receptors = target: T5, GluK2 kainate receptors (Rattus norvegicus, UniProt P42260, I567V/Q621R/Y571C); test: TEVC on Xenopus oocytes, GluK2 kainate receptors; format: cell-based; parameters: Inhibition, individual values: scale not given here; settings: for Inhibition, individual values: GluK2, single cells
# T5 construct: expressed in transfected cells; host or cells: Xenopus laevis oocytes (mRNA injection)
# T5 sequence (P42260 32-908 I567V/Y571C/Q621R): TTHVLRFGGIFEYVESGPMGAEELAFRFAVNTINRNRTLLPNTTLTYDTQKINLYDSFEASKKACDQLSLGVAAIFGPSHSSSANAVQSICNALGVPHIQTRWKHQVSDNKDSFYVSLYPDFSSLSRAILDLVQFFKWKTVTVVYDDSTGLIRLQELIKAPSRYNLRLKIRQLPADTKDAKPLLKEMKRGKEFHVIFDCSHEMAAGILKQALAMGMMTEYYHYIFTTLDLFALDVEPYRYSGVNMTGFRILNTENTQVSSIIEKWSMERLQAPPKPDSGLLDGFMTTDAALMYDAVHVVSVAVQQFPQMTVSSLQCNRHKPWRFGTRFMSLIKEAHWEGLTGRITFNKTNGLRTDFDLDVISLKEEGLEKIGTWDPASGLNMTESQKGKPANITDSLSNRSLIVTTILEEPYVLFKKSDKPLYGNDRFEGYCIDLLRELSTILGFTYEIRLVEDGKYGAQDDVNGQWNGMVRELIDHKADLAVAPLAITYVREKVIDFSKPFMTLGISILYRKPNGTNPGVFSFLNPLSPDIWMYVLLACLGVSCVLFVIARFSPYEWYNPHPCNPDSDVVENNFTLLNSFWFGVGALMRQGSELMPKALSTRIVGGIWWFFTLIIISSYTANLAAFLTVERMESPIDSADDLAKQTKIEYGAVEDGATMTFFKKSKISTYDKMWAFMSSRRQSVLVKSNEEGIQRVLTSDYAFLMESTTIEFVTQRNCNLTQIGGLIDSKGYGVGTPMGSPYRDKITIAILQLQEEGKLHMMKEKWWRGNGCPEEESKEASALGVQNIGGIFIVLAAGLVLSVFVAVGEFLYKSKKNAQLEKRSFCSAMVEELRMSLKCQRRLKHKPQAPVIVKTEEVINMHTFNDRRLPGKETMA
# Description: as §4
# The expression of recombinant GluA1, GluA2(Q), and GluK2 receptors was obtained by oocyte injection of 50 nL of mRNAs (at 1 μg/μL). mRNAs were generated using the T7 (GluA1 and GluA2) and T3 (GluK2) mMessage mMachine transcription kits (Invitrogen) after cDNA linearization with the SacII restriction enzyme. The injected oocytes were stored in the same conditions as for NMDARs and used 72–96 h postinjection.
# TEVC recordings were performed 1–3 days following injection. TEVC recordings were performed using an Oocyte Clamp amplifier OC-725 (Warner Instruments) and computer-controlled via a 1440A Digidata (Molecular Devices). Currents were sampled at 100 Hz and low-pass-filtered at 20 Hz using an 8-pole Bessel filter (900 Series, Frequency Devices Inc.). Data were collected with Clampfit 10.3. During the recording, the cells were continuously perfused with external recording Ringer solution at pH 7.3 (in mM: 100 NaCl, 0.3 BaCl2, 5 HEPES, and 2.5 KCl, pH adjustment to 7.3 by the addition of NaOH). The NMDA currents were induced by simultaneous application of L-glutamate and glycine (agonist solution) at saturating concentration (100 μM each), and DTPA (10 μM) to prevent receptor inhibition by ambient zinc (∼20 nM).[83] A control solution (100 μM glycine and 10 μM DTPA in Ringer pH 7.3) was used for washout of drug and test solutions. AMPA and kainate receptor currents were induced in the same conditions as NMDA currents (100 μM glutamate and glycine + 10 μM DTPA). Oocytes expressing GluK2 kainate receptors were treated with concanavalin A ([…], equivalent to 1.1 mg/mL) during 10 min before recording to decrease receptor desensitization. Unless notified, recordings were performed at a holding potential of −60 mV. All experiments were performed at room temperature.
# Oocytes expressing GluK2 receptors were treated with concanavalin A ([…]) before recording to decrease
# receptor desensitization.
smiles,measurement,setting,value
"c1ccc(/N=N/c2ccc(CCNc3ccncc3)cc2)cc1 [OptoNAM-3, (E)-N-(4-(Phenyldiazenyl)phenethyl)pyridin-4-amine]",inhibition of GluN1/GluN2B-Q110G,GluN1/GluN2B-Q110G,65.503%
same,inhibition of GluN1/GluN2C,GluN1/GluN2C,3.2% ± 0.5%
same,inhibition of GluN1-L135H/GluN2B,GluN1-L135H/GluN2B,13.546%
same,inhibition of GluN1/GluN2A,GluN1/GluN2A,2.7% ± 0.5%
same,inhibition at 10 µM,"GluK2 kainate receptors; 10 µM OptoNAM-3 365 nm PSS, construct GluK2, read-out: Inhibition (%)",-1.6%
same,"Inhibition, individual values","GluK2 kainate receptors; 10 µM OptoNAM-3 dark PSS (trans) as headed, second block",-0.01064 and 0.02708 and -0.08821 and 0.02098 and -0.02821
same,"Inhibition, individual values","GluK2 kainate receptors; 10 µM OptoNAM-3 dark PSS (trans), first block",0.1443 and -0.06723 and 0.004392 and 0.02857 and 0.0441
same,inhibition at 10 µM,"GluK2 kainate receptors; 10 µM OptoNAM-3 dark PSS (trans), construct GluK2, read-out: Inhibition (%)",3.1%
same,inhibition of GluK2 currents,"GluK2 kainate receptors; 10 µM, dark PSS, concanavalin A treated",no effect
same,inhibition at 10 µM,"GluK2 kainate receptors; 10 µM, dark PSS, concanavalin A treated, read-out: inhibition of GluK2 currents",3.1 ± 3.4%
